Data published in ChEMBL document CHEMBL3507680, “University of Dundee, Gates Library screen for HepG2 cell viability”.

Test: Human HepG2 cell viability assay in 384 well format
Format: toxicity, cell-based
Parameters: dose 125 nL, time 70.5 hour; cytotoxicity at 70.5 h: concentration not given beside the values
Conditions: HepG2 cells, read-out: Inhibition

Row | SMILES | cytotoxicity at 70.5 h
1 | CC(C)c1nnc(NCc2ccsc2)o1 | 3.33%
2 | Cn1ccnc1SCC(=O)NCCC1CCCO1 (stereo not given) | 31.2%
3 | CCOc1cc(C)nc(N2CCN(C(C)c3nc(C)no3)CC2)n1 (stereo not given) | -1.64%
4 | COCC1CN(c2ccc3c(Cl)ccnc3c2F)CCO1 (stereo not given) | 20.2%
5 | CCc1nc(CNC2CCCc3c2cnn3CC)cs1 (stereo not given) | 6.14%
6 | CS(=O)(=O)NCCCNc1ccc(C(F)(F)F)cc1C#N | -3.55%
7 | Cc1ncc2c(n1)CCN(C(C(N)=O)c1ccccc1)C2 (stereo not given) | -2.66%
8 | CCOC(=O)c1nc(CN2CCN(C(=O)NC3CCCCC3)CC2)cs1 | -7.73%
9 | O=C(c1c[nH]c2ncccc12)N(Cc1ccco1)C1CCCC1 | -3.94%
10 | CCc1ncc2c(n1)CN(C(C(N)=O)c1ccccc1)CC2 (stereo not given) | -3.45%
11 | N#Cc1cnc2ccccc2c1N1CCNCC1 | -1.59%
12 | CC(C)Cn1cnnc1C1CCCN1C(=O)OC(C)(C)C (stereo not given) | -0.156%
13 | CCN(C(=O)CNc1cc(C)c(F)cc1C(N)=O)C1CC1 | 0.591%
14 | Cc1cc(NCC(=O)N(C)C(C)c2cccs2)c(C(N)=O)cc1F (stereo not given) | 1.44%
15 | CCNC(=O)NC1CCCN(c2ccc(C)cc2)C1=O (stereo not given) | 0.44%
16 | Cc1cc(NCC(=O)N(C)Cc2cccs2)c(C(N)=O)cc1F | 0.052%
17 | O=C(NC(CN1CCCC1)c1ccccc1)c1c(O)cc(F)cc1F (stereo not given) | -1.92%
18 | O=C1CC(CNc2cncc(Br)c2)c2ccccc2N1 (stereo not given) | 3.03%
19 | NC(=O)CN(C(=O)c1c[nH]c2ncccc12)C1CCCC1 | 3.16%
20 | Cc1cnn(-c2cccc(N3CCCC3)n2)c1 | -1.27%

Row | SMILES | cytotoxicity at 70.5 h
21 | CCN(CC)C(=O)Cc1csc(C(C)C)n1 | 14%
22 | CC(=O)N1CCC[C@H]1C(=O)N(C)CCCOc1ccccc1 | -2.16%
23 | O=C(Nc1ccccc1OC1CCOC1)c1[nH]nc2c1CCCC2 (stereo not given) | 8.78%
24 | COc1ccc(F)cc1CSCC(=O)N(C)C1CC1 | -0.442%
25 | CCS(=O)(=O)c1ccc2c(c1)OCCO2 | -0.357%
26 | COc1ccc(C(=O)N(c2ccc(OC)c(F)c2)C(C)C)cn1 | -2.91%
27 | CC(c1nc(C2CC2)no1)N(C)Cc1cccc(F)c1 (stereo not given) | -2.41%
28 | O=C(NCc1cccnc1)N1CCSCC1CCO (stereo not given) | 13.2%
29 | O=C(Nc1nncs1)c1ccc(-n2cnnn2)cc1 | 1.5%
30 | Cc1nn(C)c(Cl)c1CNCCOc1ccc2c(c1)OCO2 | 7.39%
31 | Cn1cnc2c1CCN(CC(=O)N(Cc1ccccc1F)C1CC1)C2 | -6.36%
32 | CC(C)c1nnc2n1CCN(C(=O)c1ccccc1OCC1CC1)C2 | -4.61%
33 | COc1ccc2c(c1)C(=O)N(C)C1(CCN(CC3CC3)CC1)N2 | 3.49%
34 | COCCS(=O)(=O)Nc1ccc(-n2nccc2C(F)(F)F)cc1 | 18.2%
35 | Cc1cccc(C)c1OCC(=O)Nc1cccn(C)c1=O | -4.44%
36 | COCCNC(=O)NCCc1cccc(OC)c1O | 0.934%
37 | Cn1cnc2c1CCN(CC(=O)N(Cc1ccsc1)C1CC1)C2 | 0.271%
38 | O=C(NCc1ccncc1)N1CCSCC1c1ccc(Cl)cc1 (stereo not given) | 3.04%
39 | N#Cc1cccnc1NCCC1CCN(CC(F)(F)F)CC1 | -5%
40 | CSc1ccc(NC(=O)NCC(O)C(C)C)cc1F (stereo not given) | 4.17%

Row | SMILES | cytotoxicity at 70.5 h
41 | CSc1ccc(NC(=O)NCC(O)C2CC2)cc1F (stereo not given) | 7.73%
42 | Cn1cnn(CC(=O)NCc2ccccc2F)c1=O | 20.6%
43 | Cn1cnn(Cc2ccccc2F)c1=O | 2.33%
44 | O=C1C(Nc2ncccn2)CCN1c1ccccc1OC(F)F (stereo not given) | 1.42%
45 | COc1ccccc1N1CCCC(Nc2ncccn2)C1=O (stereo not given) | -3.79%
46 | COc1cccc(CCNC(=O)NC(C)C)c1O | 9.97%
47 | c1ccc(-c2nnc3ccc(N4CCC5(CCOC5)C4)nn23)cc1 (stereo not given) | 5.72%
48 | CN(C)S(=O)(=O)Nc1ccc(-n2nncc2C(F)(F)F)cc1 | 3.32%
49 | O=C(Cc1ccc(-n2cnnn2)cc1)Nc1nncs1 | -3.13%
50 | CN(CCO)C(=O)Nc1ccn(-c2cccc(C(F)(F)F)c2)n1 | -2.71%
51 | COCCNC(=O)Nc1ccn(-c2cccc(C(F)(F)F)c2)n1 | 9.44%
52 | CC(C)C(NC(=O)c1ccccc1)C(=O)N1CCC2(CC1)OCCO2 (stereo not given) | 17.2%
53 | CN(CCOc1ccc(Br)cc1)Cc1cscn1 | 1.92%
54 | CN(Cc1ccsc1)C(=O)CN1CCc2c(ncn2C)C1 | 17.8%
55 | CCN(CCS(=O)(=O)CC)CC1CCCO1 (stereo not given) | -3.45%
56 | CCc1nc(CN(C)Cc2nnc(-c3cccs3)o2)cs1 | -3.41%
57 | Cc1nsc(NC2CCN(c3ccccc3OC(F)F)C2=O)n1 (stereo not given) | 9.92%
58 | Cc1cc(C)cc(OCCN(C)Cc2cscn2)c1 | 0.706%
59 | COc1cccc2c1N(Cc1noc(C(C)(C)C)n1)CCC2 | 18.5%
60 | COCCN(C)C(=O)Nc1ccn(-c2cccc(C(F)(F)F)c2)n1 | -2.62%
